Experimental data taken from patent US10689383B2, “Optionally fused heterocyclyl-substituted derivatives of pyrimidine useful for the treatment of inflammatory, metabolic, oncologic and autoimmune diseases” (NUEVOLUTION A/S, priority 2014, dated 2020).

What was measured:
[1] = target: T1, human RORγt (Ligand Binding Domain) (Homo sapiens, UniProt P51449); assay: Fluorescence Polarization (FP) Assay; details: Fluorescence Polarization (FP) Assay; values given as upper bounds of activity ranges; read-out: FP activity range
T1 construct: purchased Crelux (Planegg, Germany) batch no PC5032-1
T1 sequence (P51449 269-508 limits assumed): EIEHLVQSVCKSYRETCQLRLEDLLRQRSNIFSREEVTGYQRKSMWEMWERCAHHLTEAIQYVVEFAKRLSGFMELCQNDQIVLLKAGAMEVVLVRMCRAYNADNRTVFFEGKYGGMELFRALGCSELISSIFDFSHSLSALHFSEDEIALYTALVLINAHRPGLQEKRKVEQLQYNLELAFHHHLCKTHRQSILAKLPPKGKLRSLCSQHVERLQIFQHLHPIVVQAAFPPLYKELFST
Outline: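 In vitro FP binding assay monitoring ligand binding within the ligand binding pocket. Probe is a TAMRA-labelled RORγt ligand (MW 910 g/mole); DMSO served as negative control.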

[2] = target: T2, yeast Gal4-DNA binding domain fused to the ligand binding domain of human RORγ (Homo sapiens, UniProt P51449); assay: RORγ Reporter Assay (Gal4); type: cell-based; details: values given as lower bounds of ranges; for Gal4 activity range @ 0.1 μM (% inhibition): RORγ Reporter Assay (Gal4) at 0.1 μM; for Gal4 activity range @ 1 μM (% inhibition): RORγ Reporter Assay (Gal4) at 1 μM
T2 construct: host or cells: HEK293t
T2 sequence (P51449 269-508 limits assumed): T1 sequence (P51449 269-508 limits assumed)
Outline: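 HEK293t reporter cells expressing the hybrid, with Gal4-UAS-driven firefly luciferase, treated in triplicate with compound at 1,000 nM and 100 nM (0.1% DMSO) in medium with 10% charcoal-stripped FBS for 24 h at 37 °C. Luminescence read; percent reduction of RLU calculated relative to vehicle.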

O=S(=O)(NC1CC1)c1ccc(CNc2ncnc(N3CCC[C@@H]3c3ccc(C(F)(F)F)cc3)c2F)cc1 [Example 224, N-cyclopropyl-4-[[[5-fluoro-6-[(2R)-2-[4-(trifluoromethyl)phenyl]pyrrolidin-1-yl]pyrimidin-4-yl]amino]methyl]benzenesulfonamide]
IC50 [1]: < 0.5 µM | Gal4 activity range @ 0.1 μM (% inhibition) [2]: >80 % inhibition | Gal4 activity range @ 1 μM (% inhibition) [2]: >80 % inhibition

OCC1CCC(CNc2ncnc(N3CCC[C@@H]3c3ccc(C(F)(F)F)cc3)c2F)CC1 (stereo partly drawn) [Example 225, [4-[[[5-fluoro-6-[(2R)-2-[4-(trifluoromethyl)phenyl]pyrrolidin-1-yl]pyrimidin-4-yl]amino]methyl]cyclohexyl] methanol]
IC50 [1]: < 0.5 µM | Gal4 activity range @ 0.1 μM (% inhibition) [2]: >80 % inhibition | Gal4 activity range @ 1 μM (% inhibition) [2]: >80 % inhibition

NC(=O)c1ccc(CNc2ncnc(N3CCC[C@@H]3c3ccc(C(F)(F)F)cc3)c2F)cc1 [Example 226, 4-[[[5-fluoro-6-[(2R)-2-[4-(trifluoromethyl)phenyl]pyrrolidin-1-yl]pyrimidin-4-yl]amino]methyl]benzamide]
IC50 [1]: < 10 µM | Gal4 activity range @ 1 μM (% inhibition) [2]: >50 % inhibition

OCc1ccc(CNc2ncnc(N3CCC[C@@H]3c3ccc(C(F)(F)F)cc3)c2F)cc1 [Example 227, [4-[[[5-fluoro-6-[(2R)-2-[4-(trifluoromethyl)phenyl]pyrrolidin-1-yl]pyrimidin-4-yl]amino]methyl]phenyl]methanol]
IC50 [1]: < 0.5 µM | Gal4 activity range @ 0.1 μM (% inhibition) [2]: >80 % inhibition | Gal4 activity range @ 1 μM (% inhibition) [2]: >80 % inhibition

OCC1(CNc2ncnc(N3CCC[C@@H]3c3ccc(C(F)(F)F)cc3)c2F)COC1 [Example 228, [3-[[[5-fluoro-6-[(2R)-2-[4-(trifluoromethyl)phenyl]pyrrolidin-1-yl]pyrimidin-4-yl]amino]methyl]oxetan-3-yl]methano1]
IC50 [1]: < 0.5 µM | Gal4 activity range @ 0.1 μM (% inhibition) [2]: >20 % inhibition | Gal4 activity range @ 1 μM (% inhibition) [2]: >80 % inhibition

CC1(c2ccc(C(F)(F)F)cc2)CCCN1c1ncnc(NCc2ccc(CC(N)=O)cc2)c1F (centres unmarked) [Example 229, 2-[4-[[[5-fluoro-6-[2-methyl-2-[4-(trifluoromethyl)phenyl]pyrrolidin-1-yl]pyrimidin-4-yl]amino]methyl]phenyl]acetamide]
IC50 [1]: < 0.5 µM | Gal4 activity range @ 0.1 μM (% inhibition) [2]: >50 % inhibition | Gal4 activity range @ 1 μM (% inhibition) [2]: >80 % inhibition

NC(=O)Cc1ccc(CNc2ncnc(N3CCOC[C@@H]3c3ccc(OC(F)(F)F)cc3)c2F)cc1 [Example 230, 2-[4-[[[5-fluoro-6-[(3S)-3-[4-(trifluoromethoxy)phenyl]morpholin-4-yl]pyrimidin-4-yl]amino]methyl]phenyl]acetamide]
IC50 [1]: < 0.5 µM | Gal4 activity range @ 0.1 μM (% inhibition) [2]: >50 % inhibition | Gal4 activity range @ 1 μM (% inhibition) [2]: >80 % inhibition

NC(=O)Cc1ccc(CNc2ncnc(N3CC(F)(F)CC3c3ccc(C(F)(F)F)cc3)c2F)cc1 (centres unmarked) [Example 231, 2-[4-[[[6-[4,4-difluoro-2-[4-(trifluoromethyl)phenyl]pyrrolidin-1-yl]-5-fluoro-pyrimidin-4-yl]amino]methyl]phenyl]acetamide]
IC50 [1]: < 0.5 µM | Gal4 activity range @ 0.1 μM (% inhibition) [2]: >50 % inhibition | Gal4 activity range @ 1 μM (% inhibition) [2]: >80 % inhibition

NC(=O)Cc1ccc(CNc2ncnc(N3CCC[C@@H]3c3ccc(C(F)(F)F)cc3F)c2F)cc1 [Example 232, 2-[4-[[[5-fluoro-6-[(2R)-2-[2-fluoro-4-(trifluoromethyl)phenyl]pyrrolidin-1-yl]pyrimidin-4-yl]amino]methyl]phenyl]acetamide]
IC50 [1]: < 0.5 µM | Gal4 activity range @ 0.1 μM (% inhibition) [2]: >50 % inhibition | Gal4 activity range @ 1 μM (% inhibition) [2]: >80 % inhibition

CC(=O)N1CCC(CNc2ncnc(N3CCOC[C@@H]3c3ccc(C(F)(F)F)cc3)c2F)CC1 [Example 233, 1-[4-[[[5-fluoro-6-[(3S)-3-[4-(trifluoromethyl)phenyl]morpholin-4-yl]pyrimidin-4-yl]amino]methyl]-1-piperidyl]ethanone]
IC50 [1]: < 0.5 µM | Gal4 activity range @ 0.1 μM (% inhibition) [2]: >20 % inhibition | Gal4 activity range @ 1 μM (% inhibition) [2]: >80 % inhibition

O=S1(=O)CCC(O)(CNc2ncnc(N3CCOC[C@@H]3c3ccc(C(F)(F)F)cc3)c2F)CC1 [Example 234, 4-[[[5-fluoro-6-[(3S)-3-[4-(trifluoromethyl)phenyl]morpholin-4-yl]pyrimidin-4-yl]amino]methyl]-1,1-dioxo-thian-4-ol]
IC50 [1]: < 1 µM | Gal4 activity range @ 0.1 μM (% inhibition) [2]: >0 % inhibition | Gal4 activity range @ 1 μM (% inhibition) [2]: >50 % inhibition

CC1(CNc2ncnc(N3CCOC[C@@H]3c3ccc(C(F)(F)F)cc3)c2F)COC1 [Example 235, 5-fluoro-N-[(3-methyloxetan-3-yl)methyl]-6-[(3S)-3-[4-(trifluoromethyl)phenyl]morpholin-4-yl]pyrimidin-4-amine]
IC50 [1]: < 2 µM | Gal4 activity range @ 0.1 μM (% inhibition) [2]: >0 % inhibition | Gal4 activity range @ 1 μM (% inhibition) [2]: >50 % inhibition

O=S(=O)(NC1CC1)c1ccc(CNc2ncnc(N3CCOC[C@@H]3c3ccc(C(F)(F)F)cc3)c2F)cc1 [Example 236, N-cyclopropyl-4-[[[5-fluoro-6-[(3S)-3-[4-(trifluoromethyl)phenyl]morpholin-4-yl]pyrimidin-4-yl]amino]methyl] benzenesulfonamide]
IC50 [1]: < 0.5 µM | Gal4 activity range @ 0.1 μM (% inhibition) [2]: >80 % inhibition | Gal4 activity range @ 1 μM (% inhibition) [2]: >80 % inhibition

CS(=O)(=O)N1CCC(CNc2ncnc(N3CCOC[C@@H]3c3ccc(C(F)(F)F)cc3)c2F)CC1 [Example 237, 5-fluoro-N-[(1-methylsulfonyl-4-piperidyl)methyl]-6-[(3S)-3-[4-(trifluoromethyl)phenyl]morpholin-4-yl]pyrimidin-4-amine]
IC50 [1]: < 0.5 µM | Gal4 activity range @ 0.1 μM (% inhibition) [2]: >80 % inhibition | Gal4 activity range @ 1 μM (% inhibition) [2]: >80 % inhibition

OC1(CNc2ncnc(N3CCOC[C@@H]3c3ccc(C(F)(F)F)cc3)c2F)CCOC1 (stereo partly drawn) [Example 238, 3-[[[5-fluoro-6-[(3S)-3-[4-(trifluoromethyl)phenyl]morpholin-4-yl]pyrimidin-4-yl]amino]methyl]tetrahydrofuran-3-ol]
IC50 [1]: < 10 µM | Gal4 activity range @ 0.1 μM (% inhibition) [2]: >0 % inhibition | Gal4 activity range @ 1 μM (% inhibition) [2]: >50 % inhibition

OCCC1(CNc2ncnc(N3CCOC[C@@H]3c3ccc(C(F)(F)F)cc3)c2F)CCOCC1 [Example 239, 2-[4-[[[5-fluoro-6-[(3S)-3-[4-(trifluoromethyl)phenyl]morpholin-4-yl]pyrimidin-4-yl]amino]methyl]tetrahydropyran-4-yl]ethanol]
IC50 [1]: < 0.5 µM | Gal4 activity range @ 0.1 μM (% inhibition) [2]: >20 % inhibition | Gal4 activity range @ 1 μM (% inhibition) [2]: >80 % inhibition

CS(=O)(=O)CC1(CNc2ncnc(N3CCC[C@@H]3c3ccc(C(F)(F)F)cc3)c2F)CCOCC1 [Example 240, 5-fluoro-N-[[4-(methylsulfonylmethyl)tetrahydropyran-4-yl]methyl]-6-[(2R)-2-[4-(trifluoromethyl)phenyl]pyrrolidin-1-yl]pyrimidin-4-amine]
IC50 [1]: < 0.5 µM | Gal4 activity range @ 0.1 μM (% inhibition) [2]: >80 % inhibition | Gal4 activity range @ 1 μM (% inhibition) [2]: >80 % inhibition
